Laboratory results published in EP0248858B1, “NOVEL PHOSPHO-COMPOUNDS AND M[…]” (Max-Planck-Gesellschaft zur Förderung der Wissenschaften …, priority 1985, dated 1987).

Tested on: chemisch induzierten Mamma-Karzinomen
Assay: chemically induced mammary carcinoma of the rat, oral administration as drinking solution
Format: in vivo
Conditions: Ratten; for Remission von chemisch induzierten Mamma-Karzinomen: oral (Trinklösung), Tagesdosen von 20, 40 und 60 mg/kg Körpergewicht; for Verträglichkeit compared with 1-Octadecyl-2-methyl-rac-glycero-3-phospho-cholin / Wirksamkeit compared with 1-Octadecyl-2-methyl-rac-glycero-3-phospho-cholin: oral, comparison with 1-Octadecyl-2-methyl-rac-glycero-3-phospho-cholin
Text: Die erfindungsgemäßen Arzneimittel, welche als Wirkstoffe eine Verbindung der allgemeinen Formel I enthalten, besitzen eine ausgeprägte cytotoxische Wirksamkeit, die sowohl in vivo am chemisch induzierten Mamma-Karzinom der Ratte, als auch in vitro an Leukämiezellen in der Zellkultur nachgewiesen wurde. Darüberhinaus wurden in einer klinischen Pilotstudie bei Patientinnen mit Mamma-Karzinom Hautmetastasen zur vollständigen Abheilung bei topischer Anwendung gebracht.
Für die orale Verabreichung werden die Verbindungen der allgemeinen Formel I zweckmäßig in Form einer Trinklösung angewendet. Als Träger eignen sich beispielsweise Milch, Kakao, Fruchtsaft oder Trinkwasser. […] Bei dem für diese Versuche verwendeten Tumormodell handelt es sich um ein sogenanntes hartes Modell. Dies bedeutet, daß die an diesem Modell erstellten Befunde in den meisten Fällen auch auf die humane Situation übertragbar sind.

Compound | Remission von chemisch induzierten Mamma-Karzinomen | Verträglichkeit compared with 1-Octadecyl-2-methyl-rac-glycero-3-phospho-cholin | Wirksamkeit compared with 1-Octadecyl-2-methyl-rac-glycero-3-phospho-cholin
CCCCCCCC/C=C\CCCCCCCCOP(=O)([O-])OCC[N+](C)(C)C [Oleylphosphocholin] | vollständigen Remission | besser verträglich | besser wirksam
CCCCCCCCCCCCCCCCOP(=O)([O-])OCC[N+](C)(C)C [Hexadecylphosphocholin] | vollständigen Remission | besser verträglich | besser wirksam
